In the OPERA property sets (Mansouri et al. 2018) one finds solubility data, which are given here for 96 compounds.

The structures appear in SMILES notation. Values after ≈ are worked out from the molar mass of the structure shown.

Conditions in one data set: not given
In turn, `CCCCOc1ccc(C(=O)OCCN(CC)CC)cc1` displayed a solubility of 0.13 mM (≈ 38.1 µg/mL).

In turn, `COc1cc(NS(=O)(=O)c2ccc(N)cc2)nc(C)n1` registered a solubility of 2.86 mM (≈ 843 µg/mL). Still for that read-out and setting: the same measure for `NC(=O)c1cc(Cl)cc(Cl)c1N`: 8.29 mM (≈ 1700 µg/mL); for `O=C(O)c1ccc(Br)cc1`: 0.298 mM (≈ 60 µg/mL). On the same count and under the same terms, the same measure for `CC1=C2[C@H]3OC(=O)[C@@H](C)[C@@H]3CC[C@@]2(C)C=CC1=O`: 0.812 mM (≈ 200 µg/mL).

Staying with this data set, now noted: 20 °C.
In the case of `Cc1cccc(N)c1`, the solubility was 140 mM (≈ 15000 µg/mL).

With `O=C(O)C=Cc1ccco1`, the solubility was 14.5 mM (≈ 2000 µg/mL). On the same count and under the same terms, for `O=c1[nH]c(=O)c2[nH]c(=O)[nH]c2[nH]1` the value was 0.353 mM (≈ 59.3 µg/mL).

As to `Clc1cc(-c2cccc(Cl)c2Cl)cc(Cl)c1Cl`, the solubility worked out at 3.93e-05 mM (≈ 0.0128 µg/mL).

On to `Clc1ccc(Cl)c(-c2cc(Cl)c(Cl)c(Cl)c2)c1`, for which the solubility was found to be 4.84e-05 mM (≈ 0.0158 µg/mL). Same read-out and setting: the same measure for `CC(CCl)OC(C)CCl` (stereo unspecified): 9.94 mM (≈ 1700 µg/mL); for `CCCC1(CCC)C(=O)NC(=O)NC1=O`: 2.83 mM (≈ 600 µg/mL); for `O=C(O)c1ccccc1C(c1ccc(O)cc1)c1ccc(O)cc1`: 0.546 mM (≈ 175 µg/mL). The same measure, in the same setting: the same measure for `CCOP(=S)(OCC)Oc1ccc(S(C)=O)cc1` (stereo unspecified): 6.49 mM (≈ 2000 µg/mL); for `CC(Cl)C(C)Cl` (stereo unspecified): 4.42 mM (≈ 562 µg/mL). The same measure, in the same setting: for `O=C(O)CCCCCCCCCCC(=O)O` the value was 0.174 mM (≈ 40 µg/mL). Take `Oc1cccc2ncccc12`: the solubility turned out to be 2.87 mM (≈ 417 µg/mL). Same read-out and setting: for `N[C@@H](Cc1ccc(O)c(O)c1)C(=O)O` the value was 25.4 mM (≈ 5000 µg/mL); for `Oc1ccc(/N=N/c2ccccc2)cc1`, 0.454 mM (≈ 90 µg/mL). Compound `O=C1C=C2CC3(O)COc4c(ccc(O)c4O)C3=C2C=C1O` (stereo unspecified) returned a solubility of 2 mM (≈ 600 µg/mL). The same measure, in the same setting: the same measure for `N[C@H](CCCC(=O)O)C(=O)O`: 13.7 mM (≈ 2200 µg/mL). For `CC(C)C1=CC2=CC[C@@H]3[C@](C)(CCC[C@@]3(C)C(=O)O)[C@H]2CC1`, the solubility worked out at 0.16 mM (≈ 48.4 µg/mL). `C[C@@]12C(=O)OC(=O)[C@]1(C)C1CCC2O1` showed a solubility of 0.153 mM (≈ 30 µg/mL). Same read-out and setting: the same measure for `c1ncc2nc[nH]c2n1`: 4160 mM (≈ 500000 µg/mL). In the case of `O=C(O)c1cnc(O)nc1O`, the solubility is 11.5 mM (≈ 1800 µg/mL). This solubility is about 360-fold lower than that of the compound before. Same read-out and setting: for `CCCCC(C)(C)CCC` the value was 0.0155 mM (≈ 2.2 µg/mL).

The same data set, now with this note: 22 °C.
For `CCSC(=O)N(CC(C)C)CC(C)C`, the solubility worked out at 0.207 mM (≈ 45 µg/mL).

The data set is the same for the next values; noted with them: 23 °C.
`CCCC(C)(C)C(=O)Nc1ccc(Cl)cc1` showed a solubility of 0.0951 mM (≈ 22.8 µg/mL).

Still in this data set, the particulars now being: 24 °C.
For `NC(=O)CCl`, the solubility was determined as 962 mM (≈ 90000 µg/mL). Same read-out and setting: for `O=C1CN(N=Cc2ccc([N+](=O)[O-])o2)C(=O)N1` the value was 0.334 mM (≈ 79.5 µg/mL); for `CCNP(=S)(OC)O/C(C)=C/C(=O)OC(C)C` (stereo unspecified), 0.391 mM (≈ 110 µg/mL). Still for that read-out and setting: for `CN(C)CCCN1c2ccccc2Sc2ccccc21` the value was 0.0499 mM (≈ 14.2 µg/mL).

The same data set, now with this note: 25 °C.
`C#CC(C)(C)NC(=O)c1cc(Cl)cc(Cl)c1` gave a solubility of 0.0586 mM (≈ 15 µg/mL). Still for that read-out and setting: for `ClC(Cl)=C(c1ccc(Cl)cc1)c1ccccc1Cl` the value was 0.00044 mM (≈ 0.14 µg/mL).

`CC(=O)OCC(=O)[C@@]1(O)CCC2C3CCC4=CC(=O)CC[C@]4(C)C3[C@@H](O)C[C@@]21C` (stereo partly specified) had a solubility of 0.0349 mM (≈ 14.1 µg/mL). For `COC1=CC(=O)C[C@@H](C)[C@]12Oc1c(Cl)c(OC)cc(OC)c1C2=O`, the solubility was 0.0245 mM (≈ 8.64 µg/mL).

`O=C(O)c1cc([N+](=O)[O-])cc([N+](=O)[O-])c1` registered a solubility of 6.37 mM (≈ 1350 µg/mL). Still for that read-out and setting: the same measure for `CCn1cc(C(=O)O)c(=O)c2cnc(N3CCNCC3)nc21`: 1.06 mM (≈ 322 µg/mL); for `Clc1ccc(Cl)c(-c2ccccc2)c1`: 0.00502 mM (≈ 1.12 µg/mL); for `CCOC(=O)c1ccccc1`: 4.79 mM (≈ 720 µg/mL).

The compound `Clc1ccccc1-c1c(Cl)cc(Cl)c(Cl)c1Cl` came in with a solubility of 3.68e-05 mM (≈ 0.012 µg/mL). The compound `CCCN(CCC)CCC` gave a solubility of 5.22 mM (≈ 748 µg/mL). Still for that read-out and setting: for `C=C[C@H]1CN2CCC1C[C@@H]2[C@@H](O)c1ccnc2ccccc12` (stereo partly specified) the value was 0.744 mM (≈ 219 µg/mL); for `CC(C)C(C)C(C)C`, 0.0201 mM (≈ 2.3 µg/mL).

For `CCCCCCCC=O`, the solubility was 4.37 mM (≈ 560 µg/mL). On the same count and under the same terms, for `C=Cc1ccccc1` the value was 2.98 mM (≈ 310 µg/mL). On the same count and under the same terms, the same measure for `O=C(O)c1cccnc1Nc1cccc(C(F)(F)F)c1`: 0.0673 mM (≈ 19 µg/mL); for `CNc1ccccc1`: 52.4 mM (≈ 5620 µg/mL); for `C=C(C)CCC`: 0.927 mM (≈ 78 µg/mL).

As for `c1ccc2cc3cc4ccccc4cc3cc2c1`, the solubility came to 6.61e-06 mM (≈ 0.00151 µg/mL). That is a single-digit nanomolar value. On the same count and under the same terms, the same measure for `CCCCCCCI`: 0.0155 mM (≈ 3.5 µg/mL). Same read-out and setting: the same measure for `CCOC(=S)SSC(=S)OCC`: 0.0114 mM (≈ 2.76 µg/mL); for `CC#CCCCC`: 1.7 mM (≈ 163 µg/mL); for `c1cnc2c(c1)ccc1cccnc12`: 14.9 mM (≈ 2690 µg/mL).

The compound `CCCCP(=O)(CCCC)CCCC` had a solubility of 255 mM (≈ 55700 µg/mL). On the same count and under the same terms, for `Clc1cc(-c2cc(Cl)c(Cl)c(Cl)c2Cl)c(Cl)c(Cl)c1Cl` the value was 6.33e-07 mM (≈ 0.000272 µg/mL); for `CCOP(=S)(OCC)O/N=C(\C#N)c1ccccc1`, 0.0179 mM (≈ 5.35 µg/mL); for `O=C(Nc1ccccc1)c1ccccc1O`, 0.258 mM (≈ 55 µg/mL).

In the case of `C=CCc1ccc(OC)cc1`, the solubility stood at 1.2 mM (≈ 178 µg/mL). `NC(=O)c1ccccc1O` returned a solubility of 15 mM (≈ 2060 µg/mL). Still for that read-out and setting: for `CCC#CC(C)C` the value was 1.8 mM (≈ 173 µg/mL); for `Clc1cc(Cl)c(Cl)c(-c2c(Cl)c(Cl)cc(Cl)c2Cl)c1Cl`, 3.42e-07 mM (≈ 0.000147 µg/mL). Same read-out and setting: for `Cc1cccc(C)c1NC(=O)c1cc(S(N)(=O)=O)c(Cl)cc1O` the value was 0.163 mM (≈ 58 µg/mL). Consider `O=C(O)c1ccc([N+](=O)[O-])cc1[N+](=O)[O-]`, for which the solubility was found to be 85.8 mM (≈ 18200 µg/mL). Still for that read-out and setting: the same measure for `O=C1NC(=O)C([N+](=O)[O-])C(=O)N1`: 5.2 mM (≈ 900 µg/mL); for `O=C(O)c1cc(Cl)ccc1[N+](=O)[O-]`: 48 mM (≈ 9670 µg/mL). The same measure, in the same setting: for `COP(=O)(OC)OC` the value was 3570 mM (≈ 500000 µg/mL); for `Cc1ccc(N=C=S)cc1`, 0.019 mM (≈ 2.83 µg/mL). `C1=CC=CCC=C1` gave a solubility of 6.73 mM (≈ 620 µg/mL). With `C#CCCCCCC`, the solubility worked out at 0.218 mM (≈ 24 µg/mL). Take `Nc1ccc(S(=O)(=O)Nc2nccs2)cc1`: the solubility was 3.76 mM (≈ 960 µg/mL). For `O=C=O`, the solubility amounted to 33.5 mM (≈ 1470 µg/mL). Against the preceding compound, the solubility is about 8.9-fold higher. As to `C=CCCC`, the solubility was found to be 2.11 mM (≈ 148 µg/mL). On to `Cc1cccc2c1ccc1ccccc12`, for which the solubility was 0.0014 mM (≈ 0.269 µg/mL).

With `C1CCCC1`, the solubility was determined as 2.22 mM (≈ 156 µg/mL). On the same count and under the same terms, for `CCc1cccs1` the value was 2.6 mM (≈ 292 µg/mL).

Turning to `COP(=S)(NC(C)C)Oc1ccc(Cl)cc1Cl` (stereo unspecified), the solubility was determined as 0.0159 mM (≈ 5 µg/mL). This solubility lies about 160-fold lower than the previous one. In turn, `CCCC(=O)CCC` showed a solubility of 28 mM (≈ 3200 µg/mL). Against the preceding compound, the solubility is about 1800-fold higher. `Cc1cc(C)cc(O)c1` returned a solubility of 39.9 mM (≈ 4880 µg/mL). For `Oc1ccc(-c2ccccc2)cc1`, the solubility was found to be 0.33 mM (≈ 56.2 µg/mL). On the same count and under the same terms, for `CCC(C)c1ccc(O)cc1` (stereo unspecified) the value was 6.39 mM (≈ 960 µg/mL); for `CC(=O)Nc1ccccc1`, 51.3 mM (≈ 6930 µg/mL); for `ClCC1CO1` (stereo unspecified), 712 mM (≈ 65900 µg/mL). `c1cc2ccc3ccc4ccc5cccc6c(c1)c2c3c4c56` yielded a solubility of 9.41e-07 mM (≈ 0.00026 µg/mL). Same read-out and setting: for `CCCC(C)O` (stereo unspecified) the value was 506 mM (≈ 44600 µg/mL). On the same count and under the same terms, the same measure for `COC(=O)C(=O)OC`: 511 mM (≈ 60300 µg/mL); for `FC1(F)C(F)(F)C(F)(F)C1(F)F`: 0.165 mM (≈ 33 µg/mL).

Take `C=CCCCCCCC`: the solubility turned out to be 0.00887 mM (≈ 1.12 µg/mL). Same read-out and setting: for `Cc1cccc2c1Cc1ccccc1-2` the value was 0.00605 mM (≈ 1.09 µg/mL); for `Clc1ccc(-c2ccccc2)c(Cl)c1`, 0.00515 mM (≈ 1.15 µg/mL).

Still in this data set, the particulars now being: 30 °C.
`C#CC=C` returned a solubility of 34.3 mM (≈ 1790 µg/mL).

With `CCCCn1c(=O)c2c(ncn2C)n(C)c1=O`, the solubility amounted to 23.7 mM (≈ 5600 µg/mL). For `CCCCC(=O)CCCC`, the solubility was found to be 2.55 mM (≈ 363 µg/mL). The same measure, in the same setting: the same measure for `NS(=O)(=O)c1cc2c(cc1Cl)N=CNS2(=O)=O`: 0.899 mM (≈ 266 µg/mL). The same measure, in the same setting: the same measure for `CCCCCCCCCCC(=O)O`: 0.28 mM (≈ 52.2 µg/mL); for `Cc1c(N(C)C)c(=O)n(-c2ccccc2)n1C`: 235 mM (≈ 54400 µg/mL).
